Measurements reported in paper PMC9516332 (Frontiers in Oncology, 2022).
pIC50: −log10 of the molar value. Like-named read-outs stand apart in the source and are kept apart here.

What was measured:
[1] = target: panel of 255 wild-type kinases (Homo sapiens, UniProt P06241); experiment: Kinase panel profiling at 1 µmol/L (MSA or IMAP), percentage inhibition; type: biochemical; conditions: kinase FYN [isoform a]; 1 µmol/L single concentration; read-out: %-inhibition at 1 µmol/L, FYN [isoform a]
[2] = target: panel of 255 wild-type kinases (Homo sapiens, UniProt P48729); experiment: as above; type: biochemical; conditions: kinase CK1α; 1 µmol/L single concentration; read-out: %-inhibition at 1 µmol/L, CK1α
[3] = target: panel of 255 wild-type kinases (Homo sapiens, UniProt Q13882); experiment: as above; type: biochemical; conditions: BRK kinase assay; 1 µmol/L single concentration; read-out: %-inhibition BRK
[4] = target: panel of 255 wild-type kinases (Homo sapiens, UniProt Q16816); experiment: as above; type: biochemical; conditions: kinase PHKG1; 1 µmol/L single concentration; read-out: %-inhibition at 1 µmol/L, PHKG1
[5] = target: panel of 255 wild-type kinases (Homo sapiens, UniProt Q9H422); experiment: as above; type: biochemical; conditions: kinase HIPK3; 1 µmol/L single concentration; read-out: %-inhibition at 1 µmol/L, HIPK3
AP-1060 (ETV6-NTRK3) = experiment: Cell viability assay; conditions: read-out: IC50 in cell proliferation assay
134 cancer cell lines = experiment: Cell viability assay (ATPlite, 72 hours), IC50 on cancer cell line panel

- inhibition at 1 µM [1]: 3.76%
- inhibition at 1 µM [2]: 9%
- inhibition at 1 µM [3]: 1.08%
- inhibition at 1 µM [4]: 1.77%
- inhibition at 1 µM [5]: 0.0241%
- pIC50 (134 cancer cell lines; HEC-6, read-out: IC50 in cell proliferation assay, HEC-6 cell line (EGFR p.A289V)): < 4.50
- pIC50 (134 cancer cell lines; Homo sapiens, 769-P, read-out: IC50 in cell proliferation assay, cell line 769-P): 6.64
- pIC50 (134 cancer cell lines; Homo sapiens, 786-0, read-out: IC50 in cell proliferation assay, cell line 786-O): < 4.50
- pIC50 (134 cancer cell lines; Homo sapiens, A 172, read-out: IC50 in cell proliferation assay, cell line A-172): 4.70
- pIC50 (134 cancer cell lines; Homo sapiens, A204, read-out: IC50 in cell proliferation assay, cell line A-204): < 4.50
- pIC50 (134 cancer cell lines; Homo sapiens, A498, read-out: IC50 in cell proliferation assay, cell line A-498): 7.28
- pIC50 (134 cancer cell lines; Homo sapiens, A549, read-out: IC50 in cell proliferation assay, cell line A-549): 7.04
- pIC50 (134 cancer cell lines; Homo sapiens, A704, read-out: IC50 in cell proliferation assay, cell line A-704): < 4.50
- pIC50 (134 cancer cell lines; Homo sapiens, A-375, read-out: IC50 in cell proliferation assay, cell line A-375 (BRAF p.V600E)): 7.07
- pIC50 (134 cancer cell lines; Homo sapiens, A-427, read-out: IC50 in cell proliferation assay, cell line A-427): 6.20
- pIC50 (134 cancer cell lines; Homo sapiens, ACHN, read-out: IC50 in cell proliferation assay, cell line ACHN): 7.49
- pIC50 (134 cancer cell lines; Homo sapiens, AN3-CA, read-out: IC50 in cell proliferation assay, cell line AN3-CA (FGFR2 p.N549K)): 4.89
- pIC50 (134 cancer cell lines; Homo sapiens, ASPC1, read-out: IC50 in cell proliferation assay, cell line AsPC-1): 6.94
- pIC50 (134 cancer cell lines; Homo sapiens, AU565, read-out: IC50 in cell proliferation assay, cell line AU565 (ERBB2 amplification)): < 4.50
- pIC50 (134 cancer cell lines; Homo sapiens, BT-20, read-out: IC50 in cell proliferation assay, cell line BT-20): < 4.50
- pIC50 (134 cancer cell lines; Homo sapiens, BT-474, read-out: IC50 in cell proliferation assay, cell line BT-474 (ERBB2 amplification)): < 4.50
- pIC50 (134 cancer cell lines; Homo sapiens, BT-549, read-out: IC50 in cell proliferation assay, cell line BT-549): 5.06
- pIC50 (134 cancer cell lines; Homo sapiens, BXPC-3, read-out: IC50 in cell proliferation assay, cell line BxPC-3): 7.62
- pIC50 (134 cancer cell lines; Homo sapiens, C-33-A, read-out: IC50 in cell proliferation assay, cell line C-33 A): 7.14
- pIC50 (134 cancer cell lines; Homo sapiens, CAL-27, read-out: IC50 in cell proliferation assay, cell line CAL-27): 6.93
- pIC50 (134 cancer cell lines; Homo sapiens, CCF-STTG1, read-out: IC50 in cell proliferation assay, cell line CCF-STTG1): < 4.50
- pIC50 (134 cancer cell lines; Homo sapiens, CCRF-CEM, read-out: IC50 in cell proliferation assay, cell line CCRF-CEM): < 4.50
- pIC50 (134 cancer cell lines; Homo sapiens, COLO 205, read-out: IC50 in cell proliferation assay, cell line COLO 205 (BRAF p.V600E)): 7.51
- pIC50 (134 cancer cell lines; Homo sapiens, COLO-829, read-out: IC50 in cell proliferation assay, cell line COLO 829 (BRAF p.V600E)): 6.90
- pIC50 (134 cancer cell lines; Homo sapiens, DLD-1, read-out: IC50 in cell proliferation assay, cell line DLD-1): 6.28
- pIC50 (134 cancer cell lines; Homo sapiens, DU-4475, read-out: IC50 in cell proliferation assay, cell line DU4475 (BRAF p.V600E)): 7.42
- pIC50 (134 cancer cell lines; Homo sapiens, Daoy, read-out: IC50 in cell proliferation assay, cell line Daoy): 5.40
- pIC50 (134 cancer cell lines; Homo sapiens, DoTc2-4510, read-out: IC50 in cell proliferation assay, cell line DoTc2 4510): 6.95
- pIC50 (134 cancer cell lines; Homo sapiens, EOL1, read-out: IC50 in cell proliferation assay, cell line EoL-1 (FIP1L1-PDGFRA)): 7.09
- pIC50 (134 cancer cell lines; Homo sapiens, FaDu, read-out: IC50 in cell proliferation assay, cell line FaDu): 7.33
- pIC50 (134 cancer cell lines; Homo sapiens, G-361, read-out: IC50 in cell proliferation assay, cell line G-361 (BRAF p.V600E)): 6.84
- pIC50 (134 cancer cell lines; Homo sapiens, HCC827, read-out: IC50 in cell proliferation assay, cell line HCC827 (EGFR exon19del)): 6.57
- pIC50 (134 cancer cell lines; Homo sapiens, HCC4006, read-out: IC50 in cell proliferation assay, cell line HCC4006 (EGFR exon19del)): 4.57
- pIC50 (134 cancer cell lines; Homo sapiens, HCT-15, read-out: IC50 in cell proliferation assay, cell line HCT 15): 5.97
- pIC50 (134 cancer cell lines; Homo sapiens, HCT-116, read-out: IC50 in cell proliferation assay, cell line HCT 116): 6.28
- pIC50 (134 cancer cell lines; Homo sapiens, HEC-1, read-out: IC50 in cell proliferation assay, HEC-1 cell line): < 4.50
- pIC50 (134 cancer cell lines; Homo sapiens, HEC-1B, read-out: IC50 in cell proliferation assay, HEC-1-B cell line (EGFR p.A864V)): 7.92
- pIC50 (134 cancer cell lines; Homo sapiens, HL-60, read-out: IC50 in cell proliferation assay, HL-60 cell line): 8.30
- pIC50 (134 cancer cell lines; Homo sapiens, HT, read-out: IC50 in cell proliferation assay, HT cell line): < 4.50
- pIC50 (134 cancer cell lines; Homo sapiens, HT-1080, read-out: IC50 in cell proliferation assay, HT-1080 cell line): 7.57
- pIC50 (134 cancer cell lines; Homo sapiens, Hs746T, read-out: IC50 in cell proliferation assay, Hs 746.T cell line (MET exon14skip + amplification)): 4.90
- pIC50 (134 cancer cell lines; Homo sapiens, Hs-578T, read-out: IC50 in cell proliferation assay, Hs 578T cell line): 6.84
- pIC50 (134 cancer cell lines; Homo sapiens, HuTu80, read-out: IC50 in cell proliferation assay, HuTu 80 cell line): 5.48
- pIC50 (134 cancer cell lines; Homo sapiens, J82, read-out: IC50 in cell proliferation assay, J82 cell line): 6.70
- pIC50 (134 cancer cell lines; Homo sapiens, Jurkat E6.1, read-out: IC50 in cell proliferation assay, Jurkat E6.1 cell line): < 4.50
- pIC50 (134 cancer cell lines; Homo sapiens, K562, read-out: IC50 in cell proliferation assay, K-562 cell line): 6.42
- pIC50 (134 cancer cell lines; Homo sapiens, KATO III, read-out: IC50 in cell proliferation assay, KATO III cell line (FGFR2 amplification)): 5.27
- pIC50 (134 cancer cell lines; Homo sapiens, KG-1, read-out: IC50 in cell proliferation assay, KG-1 cell line (FGFR1OP2-FGFR1)): 6.39
- pIC50 (134 cancer cell lines; Homo sapiens, KLE, read-out: IC50 in cell proliferation assay, KLE cell line): < 4.50
- pIC50 (134 cancer cell lines; Homo sapiens, KMS-11, read-out: IC50 in cell proliferation assay, KMS-11 cell line (FGFR3 p.Y373C)): < 4.50
- pIC50 (134 cancer cell lines; Homo sapiens, KU812, read-out: IC50 in cell proliferation assay, Ku812 cell line): 7.52
- pIC50 (134 cancer cell lines; Homo sapiens, Kasumi 1, read-out: IC50 in cell proliferation assay, Kasumi-1 cell line (KIT p.N822K)): 6.72
- pIC50 (134 cancer cell lines; Homo sapiens, LC-2-ad, read-out: IC50 in cell proliferation assay, LC-2/ad cell line (CCDC6-RET)): 7.08
- pIC50 (134 cancer cell lines; Homo sapiens, LNCaP-Clone-FGC, read-out: IC50 in cell proliferation assay, LNCaP clone FGC cell line): < 4.50
- pIC50 (134 cancer cell lines; Homo sapiens, LS174T, read-out: IC50 in cell proliferation assay, LS174T cell line): 7.15
- pIC50 (134 cancer cell lines; Homo sapiens, LS-411N, read-out: IC50 in cell proliferation assay, LS411N cell line (BRAF p.V600E)): 7.21
- pIC50 (134 cancer cell lines; Homo sapiens, LoVo, read-out: IC50 in cell proliferation assay, LoVo cell line): 7.64
- pIC50 (134 cancer cell lines; Homo sapiens, MCF7, read-out: IC50 in cell proliferation assay, MCF-7 cell line): < 4.50
- pIC50 (134 cancer cell lines; Homo sapiens, MDA-MB-231, read-out: IC50 in cell proliferation assay, MDA-MB-231 cell line): 5.99
- pIC50 (134 cancer cell lines; Homo sapiens, MDA-MB-453, read-out: IC50 in cell proliferation assay, MDA-MB-453 cell line): < 4.50
- pIC50 (134 cancer cell lines; Homo sapiens, MDA-MB-468, read-out: IC50 in cell proliferation assay, MDA-MB-468 cell line): 7.19
- pIC50 (134 cancer cell lines; Homo sapiens, MG-63, read-out: IC50 in cell proliferation assay, MG-63 cell line): 5.65
- pIC50 (134 cancer cell lines; Homo sapiens, MIA PaCa-2, read-out: IC50 in cell proliferation assay, MIA PaCa-2 cell line): 6.85
SMILES: Cn1cnc2c(F)c(Nc3ccc(Br)cc3F)c(C(=O)NOCCO)cc21 [binimetinib]
- pIC50 (AP-1060 (ETV6-NTRK3)): 4.73
